Data taken from patent US9675064B2, “Microbicidal composition” (Dow Global Technologies LLC, priority 2013, dated 2017).
Where two headings read alike, the source gives them in different places.

Experiments:
Assay type in all cases: cell-based
[1] = system: any organism tested; assay: Synergy index test, summary statements over the organisms tested; conditions: for Synergy of biocide paired with surfactant: against any organism tested; for ratio of surfactant to biocide where synergy was observed: not commercially relevant (less biocide relative to surfactant)
Protocol: Surfactants and biocides were evaluated for synergy by determining the synergy index (S.I.) of the combination. Synergy index was calculated based on minimum inhibitory concentrations (MIC) of two antimicrobial compounds (A and B) alone and in combinations. The tests organisms were Gram negative bacteria (Pseudomonas aeruginosa ATCC #15442), Gram positive bacteria (Staphylococcus aureus ATCC #6538), yeast (Candida albicans ATCC#10203) and mold (Aspergillus niger ATCC#16404). Contact time for the bacteria was 24 and 48 hours, yeast was 48 and 72 hrs, and 3 and 7 days for mold. The test was carried out in 96 well microtiter plates. R^1O(CH2CH(CH3)O)5(CH2CH2O)9H, Surf. A where R^1 is 2-ethylhexyl R^2O(CH2CH(CH3)O)3(CH2CH2O)5H Surf. D R^2O(CH2CH(CH3)O)3(CH2CH2O)7H Surf. E In Surf. D and Surf. E, R^2 is a mixture of C8-C14 linear alkyl groups (70% C8-C10 linear alkyl and 30% C12-C14 linear alkyl)
SI is calculated as follows: Ca/CA+Cb/CB=Synergy Index (“SI”)
Wherein: • CA=concentration of compound A in ppm, acting alone, which produced an end point (MIC of Compound A). • Ca=concentration of compound A in ppm, in the mixture, which produced an end point. • CB=concentration of compound B in ppm, acting alone, which produced an end point (MIC of Compound B). • Cb=concentration of compound B in ppm, in the mixture, which produced an end point. When the sum of Ca/CA and Cb/CB is greater than one, antagonism is indicated.

[2] = system: Pseudomonas aeruginosa ATCC #15442; assay: MIC / synergy index test in 96 well microtiter plates, Gram negative bacteria
Protocol: (§1) Surfactants and biocides were evaluated for synergy by determining the synergy index (S.I.) of the combination. Synergy index was calculated based on minimum inhibitory concentrations (MIC) of two antimicrobial compounds (A and B) alone and in combinations. The tests organisms were Gram negative bacteria (Pseudomonas aeruginosa ATCC #15442), Gram positive bacteria (Staphylococcus aureus ATCC #6538), yeast (Candida albicans ATCC#10203) and mold (Aspergillus niger ATCC#16404). Contact time for the bacteria was 24 and 48 hours, yeast was 48 and 72 hrs, and 3 and 7 days for mold. The test was carried out in 96 well microtiter plates. […] E In Surf. D and Surf. […] [table] […] SI is calculated as follows: Ca/CA+Cb/CB=Synergy Index (“SI”) Wherein: • CA=concentration of compound A in ppm, acting alone, which produced an end point (MIC of Compound A). • Ca=concentration of compound A in ppm, in the mixture, which produced an end point. • CB=concentration of compound B in ppm, acting alone, which produced an end point (MIC of Compound B). • Cb=concentration of compound B in ppm, in the mixture, which produced an end point. When the sum of Ca/CA and Cb/CB is greater than one, antagonism is indicated.

[3] = system: Candida albicans ATCC#10203; assay: MIC / synergy index test in 96 well microtiter plates, yeast; conditions: for MIC: Candida albicans, ATCC10203, 48 h
Protocol: as §1

[4] = system: Aspergillus niger ATCC#16404; assay: MIC / synergy index test in 96 well microtiter plates, mold; conditions: A. niger ATCC#16404, 3rd day, Media PDB; for MIC: Aspergillus niger, ATCC16404, read-out: CB (MIC of compound B acting alone), B: Potassium Sorbate
Protocol: as §1

[5] = system: Staphylococcus aureus ATCC #6538; assay: MIC / synergy index test in 96 well microtiter plates, Gram positive bacteria; conditions: for CB (MIC of compound B acting alone): S. aureus ATCC# 6538, 24 hrs
Protocol: as §1

O=[N+]([O-])C(CO)(CO)CO [TRIS NITRO]
Synergy of biocide paired with surfactant ([1]; paired with Surf. A): no synergy

CC1(C)C(=O)N(CO)C(=O)N1CO [DMDMH]
Synergy of biocide paired with surfactant ([1]; paired with Surf. D): no synergy | Synergy of biocide paired with surfactant ([1]; paired with Surf. E): no synergy

CCC12COCN1COC2 [CS-1246]
Synergy of biocide paired with surfactant ([1]; paired with Surf. D): no synergy

CCCCCCCCCC[N+](C)(C)CCCCCCCCCC.[Cl-] [DIDAC]
ratio of surfactant to biocide where synergy was observed ([1]; combination with Surf. A): 1:0.2 or greater | ratio of surfactant to biocide where synergy was observed ([1]; combination with Surf. D): 1:0.2 or greater

Cn1sc2ccccc2c1=O [MBIT]
ratio of surfactant to biocide where synergy was observed ([1]; combination with Surf. D): 1:0.05 or worse

Oc1ccccc1-c1ccccc1 [OPP]
Synergy of biocide paired with surfactant ([1]; paired with Surf. D): no synergy

CCCCCCCCCCCCCC[P+](CCCC)(CCCC)CCCC.[Cl-] [TTPC]
ratio of surfactant to biocide where synergy was observed ([1]; combination with Surf. E): 1:0.2 or greater

C/C=C/C=C/C(=O)[O-].[K+] [Potassium Sorbate]
MIC ([2]; Pseudomonas aeruginosa, ATCC15442, 24 h, read-out: CB (MIC of compound B acting alone)): 15000 µg/mL | MIC ([3]; read-out: CB (MIC of compound B acting alone), B: Potassium Sorbate, C. albicans ATCC#10203, Media PDB, inoculum 1.156E+06 CFU/ml): 800 µg/mL | MIC ([3]; read-out: CB (MIC of compound B acting alone), B: Potassium Sorbate, C. albicans ATCC#10203, Media PDB, inoculum 1.808E+06 CFU/ml): 600 µg/mL | MIC ([3]; read-out: CB (MIC of compound B acting alone), B: Potassium Sorbate, C. albicans ATCC#10203, Media PDB, inoculum 5.726E+05 CFU/ml): 1200 µg/mL | MIC ([4]; inoculum 1.156E+06 (table with Surf. D)): 6000 µg/mL | MIC ([4]; inoculum 1.156E+06 CFU/ml (table with Surf. A)): 1000 µg/mL | MIC ([4]; inoculum 1.156E+06 CFU/ml (table with Surf. E)): 1000 µg/mL | CB (MIC of compound B acting alone) ([5]; B: Potassium Sorbate, Media 1/10TSB, inoculum 1.808E+06 CFU/ml): 30000 ppm | MIC ([5]; Staphylococcus aureus, ATCC6538, 24 h, read-out: CB (MIC of compound B acting alone)): 30000 µg/mL

O=C([O-])c1ccccc1.[Na+] [Sodium Benzoate]
CB (MIC of compound B acting alone) ([2]; B: Sodium Benzoate, Ps. aeruginosa ATCC#15442, 48 hrs, Media 1/10TSB, inoculum 5.727E+07 CFU/ml): 14991 ppm | CB (MIC of compound B acting alone) ([3]; B: Sodium Benzoate, C. albicans ATCC#10203, 48 hrs, Media PDB, inoculum 5.726E+05 CFU/ml): 1200 ppm | Synergy of biocide paired with surfactant ([1]; paired with Surf. A): no synergy | CB (MIC of compound B acting alone) ([4]; B: Sodium Benzoate, inoculum 1.156E+06): 5998 ppm | CB (MIC of compound B acting alone) ([5]; B: Sodium Benzoate, Media 1/10 TSB, inoculum 1.808E+05): 30000 ppm | CB (MIC of compound B acting alone) ([5]; B: Sodium benzoate, Media 1/10TSB, inoculum 1.808E+06 CFU/ml): 30000 ppm

CCCCCCCCn1sccc1=O [OIT]
ratio of surfactant to biocide where synergy was observed ([1]; combination with Surf. D): 1:0.2 or greater | ratio of surfactant to biocide where synergy was observed ([1]; combination with Surf. E): 1:0.2 or greater

CCCCNC(=O)OCC#CI [IPBC]
ratio of surfactant to biocide where synergy was observed ([1]; combination with Surf. A): 1:0.2 or greater | ratio of surfactant to biocide where synergy was observed ([1]; combination with Surf. D): 1:0.05 or worse | ratio of surfactant to biocide where synergy was observed ([1]; combination with Surf. E): 1:0.2 or greater
